According to publication PMC7198388, “Radiohybrid Ligands: A Novel Tracer Concept Exemplified by ^18F- or ^68Ga-Labeled rhPSMA Inhibitors” (Journal of Nuclear Medicine, 2020):

Test system: LNCaP cells
Experiment: Internalization into LNCaP cells, normalized to (125I-I-BA)KuE
Type: cell-based, human
Conditions: LNCaP cells 1.25 x 10^5/well, 1 h, 37°C, ligand 0.5 nM/well; % of specific internalization of (125I-I-BA)KuE; 68Ga-19F or 18F free-chelator form; mean ± SD, n = 3
Procedure: Internalization studies were carried out according to a previously published procedure (1). Briefly, LNCaP cells were harvested 24 ± 2 hours before the experiment and seeded in poly -L-lysine coated 24-well plates […]
After removal of the culture medium, the cells were washed once with 500 µL DMEM -F12 (5% BSA) and left to equilibrate for at least 15 min at 37 °C in 200 µL DMEM-F12 (5% BSA). Each well was treated with either 25 µL of either DMEM-F12 (5% BSA, control) or 25 µL of a 100 µM PMPA (2-(Phosphonomethyl)-pentandioic acid, Tocris Bioscience, Bristol, UK) solution in PBS, for blockade. Next, 25 µL of the radioactive-labelled PSMA inhibitor (5.0 nM in PBS) was added and the cells were incubat ed at 37 °C for 60 min. The experiment was terminated by placing the 24 -well plate on ice for 3 min and consecutive removal of the medium. Each well was carefully washed with 250 µL of ice-cold HBSS. Both fractions from the first steps, representing the amount of free radioligand, were combined. Removal of surface bound activity was accomplished by incubation of the cells with 250 µL of ice-cold PMPA (10 µM in PBS) solution for 5 min […]
and rinsed again with another 250 µL of ice-cold PBS. The internalized activity was determined by incubation of the cells in 250 µL 1 M aqueous NaOH for at least 10 min. The obtained fractions were combined with those of the subsequent wash step with 250 µL 1 M aqueous NaOH. Each experiment (control and blockade) was performed in triplicate. Free, surface bound and internalized activity was quantified in a γ-counter. All internalization studies were accompanied by external reference studies, using […]
Data were corrected for non-specific

SMILES | Internalization
CC(C)(C)[Si](F)(c1ccc(C(=O)NC[C@@H](C(=O)N[C@H](CCCCNC(=O)CCCCCCC(=O)NCCCC[C@H](NC(=O)N[C@@H](CCC(=O)O)C(=O)O)C(=O)O)C(=O)O)n2cc(CNC(=O)CCP(=O)(O)CN3CCN(CP(=O)(O)CCC(=O)O)CCN(CP(=O)(O)CCC(=O)O)CC3)nn2)cc1)C(C)(C)C [68/natGa-19/18F-rhPSMA-5, metal not drawn] | 43 ± 3 % of reference
CC(C)(C)[Si](F)(c1ccc(C(=O)NC[C@@H](NC(=O)CCC(C(=O)O)N2CCN(CC(=O)O)CCN(CC(=O)O)CCN(CC(=O)O)CC2)C(=O)N[C@H](CCCCNC(=O)CCCCCCC(=O)NCCCC[C@H](NC(=O)N[C@@H](CCC(=O)O)C(=O)O)C(=O)O)C(=O)O)cc1)C(C)(C)C (some centres unmarked) [68/natGa-19/18F-rhPSMA-6, metal not drawn] | 33 ± 2 % of reference
